From ChEMBL document CHEMBL2157979, “Discovery of new non-steroidal FXR ligands via a virtual screening workflow based on Phase shape and induced fit docking” (Bioorg Med Chem Lett, 2012) come the findings set out here.

The target in assay [1] is T1, Bile acid receptor (Homo sapiens) (UniProt Q96RI1).
T1 sequence (whole entry): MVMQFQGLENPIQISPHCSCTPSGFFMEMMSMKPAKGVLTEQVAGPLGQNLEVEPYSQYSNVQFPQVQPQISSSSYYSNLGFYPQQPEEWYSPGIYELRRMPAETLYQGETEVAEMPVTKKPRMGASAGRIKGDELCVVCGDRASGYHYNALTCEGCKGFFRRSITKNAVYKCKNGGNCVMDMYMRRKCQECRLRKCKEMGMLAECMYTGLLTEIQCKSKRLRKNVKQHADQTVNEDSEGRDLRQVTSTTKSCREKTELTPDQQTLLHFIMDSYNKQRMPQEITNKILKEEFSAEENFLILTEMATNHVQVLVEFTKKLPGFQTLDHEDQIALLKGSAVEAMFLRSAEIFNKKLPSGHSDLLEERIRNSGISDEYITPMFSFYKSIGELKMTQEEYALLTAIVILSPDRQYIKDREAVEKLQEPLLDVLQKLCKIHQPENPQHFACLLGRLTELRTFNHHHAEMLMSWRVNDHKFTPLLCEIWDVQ
In words: Antagonist activity at GST-tagged FXRalpha ligand binding domain assessed as inhibition of CDCA-induced biotinylated SRC1 binding at 20 uM after 30 mins by HTRF assay.

Assay [2] deals with T2, Bile acid receptor (Homo sapiens, UniProt Q96RI1).
T2 sequence (Q96RI1 whole entry): T1 sequence (whole entry)
In words: (§1) Antagonist activity at GST-tagged FXRalpha ligand binding domain assessed as inhibition of CDCA-induced biotinylated SRC1 binding after 30 mins by HTRF assay. A general note: In TR-FRET formats the signal depends on donor and acceptor labels being close together.

Assay [3] addresses T1, Bile acid receptor (Homo sapiens). The description is as §1.
For assay [4] the target is unchanged. In words: Agonist activity at GST-tagged FXRalpha ligand binding domain assessed as biotinylated SRC1 binding at 20 uM after 30 mins by HTRF assay.
Assay [5] has as its target T2, Bile acid receptor. In words: Agonist activity at FXR. The format is functional.
For assay [6], the target named is T2, Bile acid receptor. The assay is described as follows: (§2) Agonist activity at FXRalpha expressed in HEK293 cells assessed as increase in transcriptional activity after 18 hrs by luciferase reporter gene assay. Format: functional, cell-based. Background: In a reporter assay the amount or activity of a reporter protein is the signal.
Assay [7] addresses T1, Bile acid receptor (Homo sapiens). Described as §2. Format: functional, cell-based.
Assay [8] addresses T2, Bile acid receptor. In words: (§3) Agonist activity at GST-tagged FXRalpha ligand binding domain assessed as biotinylated SRC1 binding after 30 mins by HTRF assay.
The target in assay [9] is T1, Bile acid receptor (Homo sapiens). Described as §3.

On to `C[C@@H]1CCc2c(sc3nc(CN4CCOCC4)nc(N[C@H](c4ccccc4)c4ccccn4)c23)C1`, for which the inhibition was 57.1% in assay [1] and “Dose-dependent effect” in [3]. For the same compound, the IC50 at Bile acid receptor [2] is 8.23 µM. Moreover, the Activity in assay [4] was below 5%.

Consider `O=C(COC(=O)c1ccc(O)cc1)Nc1sc2c(c1C(=O)c1ccccc1)CCCC2`, for which the inhibition was 63.3% in assay [1] and “Dose-dependent effect” in [3]. In addition, at Bile acid receptor [2], the IC50 is 3.77 µM. The Activity in assay [4] was below 5%.

`Cc1cc(OCc2c(-c3c(Cl)cncc3Cl)noc2C(C)C)ccc1-c1ccc2c(c1)c(C(=O)O)cn2C` had a concentration giving a half-maximal response (EC50) at Bile acid receptor [5] of 0.094 µM.

Consider `COC(=O)/C=C/c1cccc(N(Cc2ccc(/C=C/c3ccccc3)cc2)C(=O)C2CCCCC2)c1`, for which, on Bile acid receptor [5], a half-maximal effect (EC50) was put at 0.036 µM.

For the compound `NC(=O)c1ccc(NC(=O)[C@@H](Cc2ccccc2)NC(=O)c2ccc(Cl)cc2)cc1`, in assay [1], the inhibition turned out to be 7.28%. Moreover, the Activity in assay [4] is 52.5%; in assay [7], “Dose-dependent effect”; in assay [9], “Dose-dependent effect”. The results for the EC50 on Bile acid receptor [6] and at Bile acid receptor [8] were 2.6 µM and 12.9 µM, respectively.

By inhibition is commonly meant the drop in the measured response relative to a control, in per cent. By IC50 is commonly meant the concentration needed to halve the response being measured. Usually EC50 stands for the concentration that produces a half-maximal response.
